The values that follow come from patent EP0719267B1, “SECOND MESSENGER CELL SIGNALING INHIBITORS” (CELL THERAPEUTICS, INC., priority 1993, dated 1994).

The test system of data set [1] is murine mixed tumor lymophocyte culture (MTLC). Kind of data set: Mixed tumor lymphocyte culture (MTLC), splenocytes with 2PK3. The format is cell-based. As to the method:
(§1) Figures 50A and 50B illustrate that compound no. 45 inhibits a murine mixed tumor lymophocyte culture (MTLC) and a human mixed leukocyte reaction (MLR). In the MTLC, splenocytes were stimulated (co-culture) with an alloantigen, B cell tumor target cell line (2PK3) in the presence or absence of compound no. 45. Cells were stimulated for 3 days, ^3H-TdR was added and the cells were harvested 4 hours later. Incorporation of ^3H-TdR was determined by liquid scintillation. Background counts were 1000-1200 CPM. For the human MLR, purified peripheral lymphocytes from two HLA disparate individuals were co-cultured for 6 days with or without compound no. 45. On the 7th day the cultures were pulsed with ^3HTdR for 24 hours and counted by scintillation.
In an assay related to the MTLC assay, cytokines levels were measured by ELISA from the supernatants of an MTLC culture. […] 45. Figures 60B and 60C illustrate that compound no.

The test system of a further data set is murine splenocytes. The data set is described as follows: Splenocytes stimulated with anti-CD3 and anti-CD28 antibodies: proliferation and cytokine release. It is filed as cell-based. An excerpt:
Figures 58A and 58B illustrate that inventive compound no. […] Murine splenocytes were stimulated with a mixture of anti-CD3 and anti-CD28 monoclonal antibodies. Inventive compound no.
Figures 58C and 58D illustrate that compound no. […] Procedurally, murine splenocytes were stimulated with a mixture of anti-CD3/CD28 antibodies. Inventive compound no. […] Addition of an anti-IL-2 receptor alpha subunit antibody and an anti-IL-2 receptor beta subunit antibody to the cultures inhibited both proliferation and the release of IFN-γ (figure 60D).

For data set [2], the system named is human mixed leukocyte reaction (MLR). Kind of data set: Mixed leukocyte reaction (MLR), two HLA disparate individuals. It is filed as cell-based. The following applies: 144 h, 6 days co-culture. The protocol: as §1
Data set [3] relates to anti-CD3-stimulated mouse splenocytes. The data set is described as follows: Cytokine release from anti-CD3-stimulated splenocytes (ELISA). The following applies: 1 µM, overnight. The format is cell-based. As to the method:
Figures 59A, 59B and 59C report assay results investigating the effect of inventive compound no. 45 on cytokine release from anti-CD3-stimulated mouse splenocytes. […] 45 (1 µM). Concentrations chosen were approximately equal to IC50 values. The supernatants were harvested and assayed for cytokine levels using commercial ELISAs for proliferation. Anti-CD3 stimulated release of IL-2, IFN-γ and IL-4 (background levels for media control were negligible). […] However, compound no. […] Compound no.

Data set [4] has as its system IL-2 receptor beta (p70) subunit. The data set is described as follows: IL-2 receptor beta subunit internalization in CT-6.1 cells (flow cytometry). It is filed as cell-based, murine. The following applies: 20 ng/ml IL-2. As to the method:
In figure 55, inventive compound no. […] In this assay protocol, CT-6.1 cells were starved overnight and stimulated with 20 ng/ml IL-2. At various times following IL-2 stimulation, cells were rapidly suspended in ice cold PBS and stained using a fluoresceinated monoclonal recognizing the beta subunit of the IL-2 receptor and cell surface expression analyzed by flow cytometry. Figure 55 is a plot of mean fluorescence versus time (in minutes) following IL-2 addition, illustrating that IL-2r beta subunit was rapidly internalized following IL-2 addition with cell surface expression remaining low for 6 hours. Inventive compound no.

For a further data set, the system named is IL-2. The data set is described as follows: IL-2 production in thymocytes stimulated with ConA and IL-1 (ELISA). It is filed as cell-based, murine. The following applies: ConA and IL-1, 4 days. The source says:
Thymocytes were stimulated with ConA and IL-1 for 4 days with or without adding inventive compounds to the culture media. The supernatants were removed and assayed by ELISA for IL-2 levels by a commercially available kit.

In data set [5] the test system is normal human bone marrow stromal cells. The data set is described as follows: Cytotoxicity in normal bone marrow stromal cells (vital dye uptake). The format is cell-based. The following applies: much higher concentrations than cytotoxic to tumor cells. As to the method:
Human bone marrow stromal cells (1 x 10^4 cells/well) were plated in 96 well plates in McCoy's medium with serum and incubated overnight. Different dilutions of inventive compound no. 50 were added and viable cell counts made by vital dye uptake.

For data set [6], the system named is 92 kD matrix metalloprotease (MMP). The data set is described as follows: Metalloproteinase production in TNF-α stimulated THP-1 cells (zymogram). The format is cell-based, human. The following applies: 2.5 µM, TNF-α 18 hours. The protocol:
(§2) Another assay measures an ability of the inventive compounds, as represented by compound no. 50, to inhibit metalloproteinase production in cancer cells. In the assay protocol, THP-1 human leukemia cells (1-2 x 10^6/35 mm dish) were plated in RPMI medium with 0.5% serum. Inventive compound no. 50 was added at 2.5 µM. Following incubation for 1 hour, TNF-α was added and incubated for 18 hours. The supernatants from control and treated plates were collected and protease activity was determined in gelatin gels (zymogram) after electrophoretic protein separation. […] The presence of compound no. […] Compound no. 50, representative of compounds of the invention, is capable of substantially reducing metastatic potential of cancer cells by blocking metalloprotease production.

In another data set the test system is 72 kD MMP. The data set is described as above. It is filed as cell-based, human. The following applies: 2.5 µM, TNF-α 18 hours. As to the method: as §2
A further data set relates to HUVEC. Kind of data set: VEGF-induced HUVEC migration, Matrigel invasion assay system. The format is cell-based. The following applies: Homo sapiens, 50 ng/ml VEGF. The source says:
58. HUVEC were placed in a Matrigel invasion assay system (Becton Dickinson) and VEGF-induced migration assessed with or without varying concentrations of inventive compound no. 58.

Data set [7] has as its system human umbilical vein endothelial cell line (HUVEC). The data set is described as follows: VEGF-induced proliferation of HUVEC. It is filed as cell-based. The protocol:
This example illustrates an investigation of inhibitory effects of compound no. 58 on Vascular Endothelial Growth Factor (VEGF)-induced proliferation in a human umbilical vein endothelial cell line (HUVEC). In this assay procedure, cells were grown in reduced serum (0.5% fetal calf serum) for 24 hours prior to stimulating with various concentrations of VEGF. […] Compound no.
As illustrated in figures 67A and 67B, inventive compound no. 58 inhibited VEGF-induced proliferation in HUVEC and EGF-induced proliferation in Swiss/3T3 cells, respectively. Procedurally, HUVEC were placed in 0.5% serum containing medium prior to stimulation with various concentrations of VEGF, with or without inventive compound no. 58 (5 µM). Twenty four hours later the cells were pulsed with ^3H-TdR and 4 hours later harvested and counted by scintillation. The IC50 for inhibition was approximately 50-100 nM. Swiss 3T3 cells were stimulated with 20 ng/ml EGF and 24 hours later harvested and counted by scintillation.

For the next data set, the system named is Balb/3T3 cells. Kind of data set: Cytotoxicity to PDGF-stimulated Balb/3T3 cells (BCECF). The format is cell-based. The following applies: fig. 66B.

Protocol for Balb/3T3 cells: LD50 values were determined using a cytotoxicity assay, as in Example 32. In these assays, Balb/3T3 cells, stimulated with PDGF and treated with one of the above inventive compounds in a manner identical to the tritiated thymidine procedure above, were incubated instead with a viable dye BCECF, a fluorescent dye. Fluorescence was measured using a fluorescent plate reader.

As to `CCCCCCCCNCC(O)CCCCCCCCCn1c(=O)c2c(ncn2C)n(C)c1=O` (centres unmarked) [compound no. 45], in [1] (ELISA of supernatants), the IFN-γ release entry was “inhibited IFN-γ release” and the “IL-2 or TNFα release” value was “did not inhibit either IL-2 or TNFα release from the MTLC”. Besides, the IC50 in data set [1] (Mus musculus, 72 h, 3 days) is roughly 500 nM. The overall proliferation result in data set [1] (fig. 60A) is “inhibition of overall proliferation”. Further, in the data set with murine splenocytes, the “CD28-mediated release of IL-2” value is given as “did not inhibit the CD28-mediated release of IL-2”, the T cell proliferation result is “inhibited T cell proliferation in this system” and the “release of IFN-γ” value is reported as “inhibited release of IFN-γ”. The same molecule showed an IC50 in data set [2] of roughly 500 nM. In data set [3], the IFN-γ release result is on record as “drastically inhibited IFN-γ release”, the IL-2 release result is reported as “did not significantly inhibit IL-2 release” and the IL-4 release result is “only partially inhibits IL-4 release”. In addition, the “IL-2 receptor beta subunit internalization” value in [4] is recorded as “did not inhibit this receptor internalization activity”.
Regarding `CCCCCCCCCCCCNCC(O)CCCCCCCCCn1c(=O)c2c(ncn2C)n(C)c1=O` (centres unmarked) [compound no. 50, 1-(11-Dodecylamino-10-hydroxyundecyl)-3,7-dmethylxanthine], the IL-2 production result with IL-2 is on record as “do not inhibit production of IL-2”. Besides, the cytotoxic activity result in data set [5] was “lacks cytotoxic activity in normal human bone marrow stromal cells”. Also, the “TNF-α-stimulated expression of 92 kD MMP” value in [6] is “blocked the TNF-α-stimulated expression of both the 92 and 72 kD MMPs”. Moreover, the “TNF-α-stimulated expression of 72 kD MMP” value with 72 kD MMP is “blocked the TNF-α-stimulated expression of both the 92 and 72 kD MMPs”.
Consider `COc1cc(CNCC(O)CCCCCCCCCn2c(=O)c3c(ncn3C)n(C)c2=O)cc(OC)c1OC` (centres unmarked) [compound no. 58, 1-[11-(3,4,5-Trimethoxybenzylamino)-10-hydroxyundecyl]-3,7-dimethylxanthine], for which the IC50 lay in the range of 100 to 200 nM in the data set on HUVEC and 50 to 100 nM in data set [7] (Homo sapiens, HUVEC, VEGF, 0.5% serum). Also, the “inhibition of VEGF-induced proliferation” value in data set [7] (5 µM) was “inhibited VEGF-induced proliferation at all concentrations of VEGF tested”. The cytotoxicity result in the data set on Balb/3T3 cells is “not cytotoxic to Balb/3T3 cells”.
